Data from patent US20190183138A1, “MILK COAGULANT AND METHOD FOR PRODUCING CHEESE” (CHINA AGRICULTURAL UNIVERSITY, priority 2017, published 2019).
Square brackets hold non-standard residues; d marks the D form. Peptide text beside a SMILES is read from it. * marks the point of attachment. Sta = CC(C)C[C@H](N)[C@@H](O)CC(=O)O; Isovaleryl = CC(C)CC(=O)*

Assays:
[1] = test system: C. otophyllum protease QC; assay type: biochemical, Cynanchum otophyllum Schneid.; conditions: inhibitor 8 mmol/L, 37° C., 30 min
Experimental: (§1) The caseinolytic activities of the C. otophyllum proteases were determined using a method modified from Mohanty et al. (2003). The substrate was prepared by dissolving 1% (wt/vol) of whole casein in 10 mmol/L of citric acidphosphate buffer (pH 6.5). The assay was performed by incubating 1.1 mL of substrate with 0.1 mL of partially purified protease extracted solution under 37° C. for 30 min and terminated using 1.8 mL of 5% (wt/vol) trichloroacetic acid (TCA). The blank control was prepared by adding the same amount of TCA to the protease extracted solution, then adding the substrate. After 30 min standing at room temperature, the completely precipitated proteins were removed by centrifuging at 5,000 × g for 20 min at room temperature. The protein content in the supernatant was then measured at 280 nm (UV-2102 PC, Unico Instrument Co. Ltd.). One unit of PA was defined as the amount of the protease extracted solution required for an increase of 0.01 in optical density in 1 min at 280 nm.
(§2) The type of protease was determined as described by Mazorra-Manzano et al. (2013) with modification.Different protease inhibitors (8 mmol/L, 0.1 mL), a serine protease (phenylmethylsulfonyl fluoride, PMSF), a cysteine protease [transepoxy-succinylleucyl-amido-(4-guanidino)-butane, E-64], a metallo protease (EDTA), and an aspartic protease (pepstatin A), were added to 1 mL of the proteases. The mixtures were incubated at 37° C. for 30 min, then PA was evaluated. The percentage inhibition was calculated as follows:
(§3) percentage inhibition=100−[100−(residual activity/activity without inhibitor)].

[2] = test system: C. otophyllum protease QA; assay type: biochemical, Cynanchum otophyllum Schneid.; conditions: inhibitor 8 mmol/L, 37° C., 30 min
Experimental: as §1, §2, §3

[3] = test system: C. otophyllum protease QC; assay: Effect of metal ions on milk-clotting activity; assay type: biochemical, Cynanchum otophyllum Schneid.; conditions: metal ion 10 mmol/L added to 12% (w/v) skim milk containing 10 mmol/L CaCl2, pH 6.5
Description: (§4) Some metal ions as a cofactor can participate in the milk-clotting reaction, thus affecting activity of enzyme. Further, the skim milk is of increased iron strength after addition of salts, thus interfering the stability of casein micelle and the formation of the milk clot. […] The reason of the promotion on milk coagulant activity and the decrease in milk-clotting time by the calcium ions is that they combines with exposed α-casein and β-casein during aggregation of the casein (i.e. the second step of the milk-clotting reaction), so as to promote formation of the milk clot. Further, it has been investigated that the calcium ions protect enzyme, especially those being poor resistant to temperature, and stabilizes the structure of enzyme, thus an amount of CaCl2 is often added to protect the structure of enzyme during cheese production, for increasing activity and speeding milk-clotting.

[4] = test system: C. otophyllum protease QA; assay: Effect of metal ions on milk-clotting activity; assay type: biochemical, Cynanchum otophyllum Schneid.; conditions: metal ion 10 mmol/L added to 12% (w/v) skim milk containing 10 mmol/L CaCl2, pH 6.5
Description: as §4

[5] = test system: 12% skim milk; assay: Milk clotting activity (MCA) assay, curd formation time; assay type: biochemical; conditions: 12% skim milk in 10 mM CaCl2, pH 6.5, 37° C.; FIG. 5
Experimental: The MCA of the C. otophyllum proteases was determined using a modified method of He et al. (2011). One milliliter of substrate (12% skim milk in 10 mM CaCl2, pH 6.5) was incubated under 37° C. for 5 min, then 0.1 mL of the protease extracted solution was added. The time needed for curd formation was recorded and the MCA was expressed in Soxhlet units (SU). One SU of MCA was defined as the amount of the protease extracted solution required to clot 1 mL of substrate within 40 min at 37° C.
where V stands for the volume of the substrate (mL); v stands for the volume of the protease extract; and t stands for the milk-clotting time (s).
The C. otophyllum proteases were extracted as described by Huang et al. (2011) with some modifications. The C. otophyllum leaves were cut into pieces, mixed with a buffer at different solid-liquid ratios (i.e. ratio of mass to volume) for extraction, and then left for 2 h under 4° C., thus obtaining an extracted solution. After successive filtration through 4 layers of cheesecloth and a 0.22-μm membrane, the filtrate was concentrated by ultrafiltration with a 10-kDa molecular weight cut-off membrane at 8000 × g for 40 minutes at 4° C., with the retentate obtained as the concentrated solution of C. otophyllum proteases, which was assayed for protein concentration following the method of Bradford (1976) and curd formation time for 12% (w/v) skim milk.

Molecule | effect on milk-clotting activity of QC [3] | effect on milk-clotting activity of QA [4] | other results
CC(C)CC(=O)N[C@H](C(=O)N[C@H](C(=O)N[C@@H](CC(C)C)[C@@H](O)CC(=O)N[C@@H](C)C(=O)N[C@@H](CC(C)C)[C@@H](O)CC(=O)O)C(C)C)C(C)C [pepstatin A] (Isovaleryl-VV[Sta]A[Sta]-OH) | – | – | effect on the PA of QC [1]: does not affect; effect on the PA of QA [2]: does not affect
copper | significant inhibition | significant inhibition | –
calcium | significant increased effect | significant increased effect | –
barium | no significant effect | no significant effect | –
potassium | no significant effect | no significant effect | –
bromelain [reference compound] | – | – | MCA (milk-clotting activity) [5]: 222.2 SU/mg
sodium | no significant effect | no significant effect | –
zinc | significant inhibition | significant inhibition | –
magnesium | no significant effect | no significant effect | –
CC(C)C[C@H](NC(=O)[C@H]1O[C@@H]1C(=O)O)C(=O)NCCCCN=C(N)N [E-64, transepoxy-succinylleucyl-amido-(4-guanidino)-butane] | – | – | PA of QC in presence of inhibitor ([1]; 0.1 mL to 1 mL protease): 20 % of the control; PA of QA in presence of inhibitor ([2]; 0.1 mL to 1 mL protease): 20 % of the control
O=S(=O)(F)Cc1ccccc1 [PMSF, phenylmethylsulfonyl fluoride] | – | – | reduction in the activity of QC ([1]; compared to the control): about 15%; reduction in the activity of QA ([2]; compared to the control): about 15%
lithium | no significant effect | no significant effect | –
aluminium | significant increased effect | significant increased effect | –
O=C(O)CN(CCN(CC(=O)O)CC(=O)O)CC(=O)O [EDTA] | – | – | effect on the PA of QC [1]: does not affect; effect on the PA of QA [2]: does not affect
